# Experimental data published in patent US20030211075A1 (priority 2001, published 2003).
# B1: Annexin V: protein that binds to PS with high affinity (protein, UniProt P08758 2-320, looked up)
# Annexin A5: AQVLRGTVTDFPGFDERADAETLRKAMKGLGTDEESILTLLTSRSNAQRQEISAAFKTLFGRDLLDDLKSELTGKFEKLIVALMKPSRLYDAYELKHALKGAGTNEKVLTEIIASRTPEELRAIKQVYEEEYGSSLEDDVVGDTSGYYQRMLVVLLQANRDPDAGIDEAQVEQDAQALFQAGELKWGTDEEKFITIFGTRSVSHLRKVFDKYMTISGFQIEETIDRETSGNLEQLLLAVVKSIRSIPAYLAETLYYAMKGAGTDDHTLIRVMVSRSEIDLFNIRKEFRKNFATSLYSMIKGDTSGDYKKALLLLCGEDD
# B2: tTF219 (G164A): tTF219 with amino acid 164 (Gly) replaced by Ala (protein)
# chain: GSGTTNTVAAYNLTWKSTNFKTILEWEPKPVNQVYTVQISTKSGDWKSKCFYTTDTECDLTDEIVKDVKQTYLARVFSYPAGNVESTGSAGEPLYENSPEFTPYLETNLGQPTIQSFEQVGTKVNVTVEDERTLVRRNNTFLSLRDVFGKDLIYTLYYWKSSSSAKKTAKTNTNEFLIDVDKGENYCFSVQAVIPSRTVNRKSTDSPVECMGQEKGEFRE
# B3: tTF219 (W158R) (protein)
# chain: GSGTTNTVAAYNLTWKSTNFKTILEWEPKPVNQVYTVQISTKSGDWKSKCFYTTDTECDLTDEIVKDVKQTYLARVFSYPAGNVESTGSAGEPLYENSPEFTPYLETNLGQPTIQSFEQVGTKVNVTVEDERTLVRRNNTFLSLRDVFGKDLIYTLYYRKSSSSGKKTAKTNTNEFLIDVDKGENYCFSVQAVIPSRTVNRKSTDSPVECMGQEKGEFRE
# B4: 2C3 anti-VEGF antibody (antibody, V domains shown)
# VH: QVQLQESGPELVKPGASVKMSCKASGYTFTSYVFHWVKQKPGQGLEWIGYINPYNDVTKYNEKFKGKATLTSDKSSSTAYMELSSLTSEDSAVYYCASYYGSSYGYYAMDDWGQGTTVTVSS
# VL: DIQLTQSPASLSVSAGEKVTMSCKSSQSLLNSGNQKNYLAWYQQKPGQPPKLLIHGASTRESGVPDRFTGSGSGTDFTLTISSVQAEDLAVYYCQNDYSYPLTFGAGTKLELKR
# How the values were obtained:
# [1] = progressive disease before treatment; cited from earlier work
# [2] = tested on: Mouse bEnd.3 endothelial cells; experiment: PS translocation and viability of endothelial cells exposed to H2O2; type: cell-based
# Method: Mouse bEnd.3 endothelial cells were seeded at an initial density of 50,000 cells/well. Twenty-fours later cells were incubated with increasing concentrations of H2O2 (from 10 μM to 500 μM) for 1 hour at 37° C, or left untreated. At the end of the incubation, cells were washed 3 times with PBS containing 0.2% gelatin and fixed with 0.25% glutaraldehyde. Identical wells were either stained with anti-PS IgM or trypsinized and evaluated for viability by the Trypan Blue exclusion test. For the anti-PS staining, after blocking with 2% gelatin for 10 min., cells were incubated with 2 μg/ml of anti-PS antibody, followed by detection with anti-mouse IgM-HRP conjugate.
# [3] = tested on: L540 human Hodgkin's disease tumors; experiment: L540 tumors, immunoglobulin-tTF conjugate with etoposide; conditions: mouse, in vivo
# Method: The tumor test systems were: i) L540 human Hodgkin's disease tumors growing in SCID mice; ii) C1300 Muγ (interferon-secreting) neuroblastoma growing in nu/nu mice; iii) H460 human non-small cell lung carcinoma growing in nu/nu mice. To establish solid tumors, 1.5×10^7 tumor cells were injected subcutaneously into the right anterior flank of SCID or BALB/c nu/nu mice (Charles River Labs., Wilmingham, Mass.). When the tumors had grown to various diameters, mice were assigned to different experimental groups, each containing 4 to 9 mice.
# Mice bearing L540 human Hodgkin's disease tumors were treated with a complex of tTF219 and a bispecific antibody together with the anti-cancer drug, etoposide, at a conventional dose.
# [4] = cited from earlier work
# [5] = Toxicity to mice of agents given separately; conditions: mouse, in vivo
# [6] = tested on: HT29 human colorectal carcinoma; experiment: HT29 xenograft, tumor growth and necrosis after tTF constructs and Factor VIIa; type: in vivo, mouse; conditions: mouse, in vivo, iv
# [7] = biological target: human endoglin (human) (UniProt P17813); experiment: in vivo localization, human/SCID animal with human skin graft containing a tumor, overnight
# [8] = tested on: Mouse endothelial cells; experiment: Cell based two stage coagulation assay after TNFα
# Method: (§1) Mouse endothelial cells were seeded in 48 well tissue culture plates and allowed to adhere overnight. Cells were stimulated with TNFα at the following concentrations: 500 U/ml; 100 U/ml; 20 U/ml; 4 U/ml; 0.8 U/ml; 0.16 U/ml; and with medium only.
# Endothelial cells were also tested for coagulant activity in a cell based two stage coagulation assay. After incubation with TNFα, cells were washed and incubated with coagulation factor mix (0.5 μg/ml factor VIIa in a mix containing 2.8 μg/ml factor IX, 3.4 μg/ml factor X, 50 μM phospholipids, in calcium buffer). The supernatant of wells was transferred into a 96 well ELISA plate. Substrate S2765 was added and Factor Xa generation measured.
# [9] = tested on: VCAM-1; experiment: FACS for upregulation of VCAM-1 on endothelial cells; type: cell-based, mouse
# Method: as §1
# Endothelial cells were then investigated for upregulation of the adhesion molecule VCAM-1 by fluorescence activated cell stain (FACS). To this end, cells were stained with an antibody against murine VCAM-1, followed by an appropriate FITC-conjugated secondary antibody. Fluorescent cells were detected on a flow cytometer (Becton Dickinson, San Jose, Calif.).
# [10] = tested on: HUVEC cells; experiment: FACS analysis of tissue factor expression on endothelial cells; type: cell-based, human; conditions: TNFα 500 U/ml, LPS 10 μg/ml, VEGF 1 nM, 6 h
# Method: To analyze tissue factor expression on the surface of endothelial cells, HUVEC cells were incubated with TNFα (500 U/ml), LPS (10 μg/ml) or vascular endothelial growth factor (VEGF, 1 nM) alone or in combination for 6 h at 37°. Cells were then detached and stained for surface expression of human tissue factor with a sheep-anti-human tissue factor antibody (Haemochrom. Essen. Germany) and an appropriate FITC-conjugated secondary antibody. Fluorescent cells were detected on a flow cytometer (Becton Dickinson, San Jose, Calif.).
# [11] = in vivo; cited from earlier work
# [12] = tested on: IL-1α-stimulated bEnd.3 cells; experiment: Chromogenic assay of Factor Xa formation induced by cell-bound coaguligand; type: cell-based, mouse; conditions: 10 μg per ml Annexin V
# Method: The ability of Annexin V to affect Factor Xa formation induced by coaguligand was determined by a chromogenic assay. […] Annexin V was added at concentrations ranging from 0.1 to 10 μg/ml and cells were incubated for 30 min, before addition of diluted Proplex T. The amount of Factor Xa generated in the presence or absence of Annexin V was determined. Each treatment was performed in duplicate and repeated at least twice.
# [13] = tested on: L540 Hodgkin-bearing SCID mice; experiment: Annexin V inhibition of coaguligand-induced thrombosis in vivo; set-up: species or system mouse
# Method: The ability of Annexin V to inhibit coaguligand-induced thrombosis in vivo was examined in L540 Hodgkin-bearing SCID mice.
# Four hours after the last injection mice were anesthetized and perfused with heparinized saline. Tumors were removed, fixed with 4% formalin, paraffin-embedded and stained with hematoxylene-eosin. The number of thrombosed and non-thrombosed blood vessels were counted and the percentage of thrombosis was calculated.
# [14] = biological target: T1, recombinant human VEGF (VEGF165) (human, UniProt P15692-4 27-191); experiment: competition ELISA, 1 nM VEGF on VEGFR1 (Flt-1/Fc) wells, 100 fold molar excess of 2C3
# T1 construct: Dimeric VEGF seen at about 42 kd on blots; also called huVEGF; free VEGF
# [15] = biological target: T1, recombinant human VEGF (VEGF165); experiment: competition ELISA, 1 nM VEGF on VEGFR1 (Flt-1/Fc) wells, 1000 fold molar excess of 2C3
# Sequence of human endoglin (human) (P17813 26-658): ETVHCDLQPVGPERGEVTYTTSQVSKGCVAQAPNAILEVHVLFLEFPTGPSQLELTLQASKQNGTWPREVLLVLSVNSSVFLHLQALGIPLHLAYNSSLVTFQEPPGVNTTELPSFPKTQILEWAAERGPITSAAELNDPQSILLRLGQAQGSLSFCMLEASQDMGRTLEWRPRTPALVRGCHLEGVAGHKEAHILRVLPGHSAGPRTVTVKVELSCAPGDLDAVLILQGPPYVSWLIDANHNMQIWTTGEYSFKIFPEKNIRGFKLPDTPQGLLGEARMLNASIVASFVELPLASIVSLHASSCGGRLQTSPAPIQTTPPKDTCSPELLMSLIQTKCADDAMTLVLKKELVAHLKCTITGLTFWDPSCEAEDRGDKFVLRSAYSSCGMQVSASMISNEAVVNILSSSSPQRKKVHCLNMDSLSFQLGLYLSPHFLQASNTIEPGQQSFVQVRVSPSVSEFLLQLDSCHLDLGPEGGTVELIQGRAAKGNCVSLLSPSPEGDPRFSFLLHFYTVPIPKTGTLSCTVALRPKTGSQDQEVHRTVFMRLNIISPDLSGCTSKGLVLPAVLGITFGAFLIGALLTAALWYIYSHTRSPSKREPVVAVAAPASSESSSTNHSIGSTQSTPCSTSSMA
# T1 sequence (P15692 other isoform, or with tags, fused parts or gaps limits assumed): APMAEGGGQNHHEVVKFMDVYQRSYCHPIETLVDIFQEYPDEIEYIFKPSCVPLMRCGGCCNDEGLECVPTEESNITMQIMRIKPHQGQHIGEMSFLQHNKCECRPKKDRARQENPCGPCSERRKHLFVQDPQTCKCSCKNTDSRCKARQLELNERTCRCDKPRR
molecule,measurement,setting,value
"NC(=O)c1nnn(Cc2cc(Cl)c(C(=O)c3ccc(Cl)cc3)c(Cl)c2)c1N [CAI, carboxyamidotriazole]","disease stabilization, share of cancer patients",[1],49%
OO [H2O2],cells with PS at the cell surface,[2]; H2O2 as low as 20 μM,about 50%
same,cells with PS translocation,"[2]; H2O2 higher than 100 μM, 1 hour",~90%
same,cell viability,"[2]; low levels of H2O2 (lower than 100 μM), identical to untreated cells",95%
COc1cc([C@@H]2c3cc4c(cc3[C@@H](O[C@@H]3O[C@@H]5CO[C@@H](C)O[C@H]5[C@H](O)[C@H]3O)[C@H]3COC(=O)[C@H]23)OCO4)cc(OC)c1O [etoposide],"average tumor volume, day 14",[3],1400 mm^3
"Factor VIIa: activated coagulation Factor VII, recombinant human",half-life in vivo,[4],approximately two hours
same,toxicity when given separately,[5],practically non-toxic to mice
same,average area of necrosis in tumor sections,[6],some necrosis
TEC-11 anti-human endoglin antibody,% of blood vessels in the tumor periphery to which the antibody localized,[7],84%
same,% of blood vessels throughout the tumor to which the antibody localized,[7],46%
TNFα,TNFα at which an increase over negative control was detected in the coagulation assay,[8],"0,16 U/ml"
same,"dose for procoagulant effect, fold lower than for VCAM-1 increase",[8],125 fold
same,TNFα required for measurable increase of VCAM-1 expression,[9],20 U/ml
same,tissue factor expression on the surface of HUVEC,[10],upregulated tissue factor expression
VEGF,tissue factor expression on the surface of HUVEC,[10],upregulated tissue factor expression
monophosphoryl lipid A [MPL],dose known to be safe for human use,[11],100 μg/m^2
B1,inhibition of factor Xa production,[12],58%
same,coaguligand-induced thrombosis and changes in tumor cell morphology after Annexin V pre-treatment,[13]; 100 μg Annexin V 2 hours before 40 μg anti-VCAM-1•tTF,completely abolished
same,tumor morphology,[13]; 100 μg Annexin V alone,did not alter tumor morphology
B2,toxicity when given separately,[5],practically non-toxic to mice
same,average area of necrosis in tumor sections,[6],some necrosis
B3,toxicity when given separately,[5],practically non-toxic to mice
B4,% of VEGF bound to VEGFR1-coated wells relative to the amount bound without 2C3,[14],92%
same,% of VEGF bound to VEGFR1-coated wells relative to the amount bound without 2C3,[15],105%
